Measurements reported in patent US20210161851A1, “COMBINATION THERAPY OF LYMPHOMA” (Deutsches Krebsforschungszentrum, priority 2019, published 2021).

Tests used:
[1] = tested on: primary CD4+ CTCL cells; assay: Cell death assay in primary CD4+ CTCL cells of Sezary patients; assay type: cell-based, human; details: increasing concentrations, 24 h and 48 h
Description: (§1) Seven patients with Sezary syndrome (CTCL stage IV) diagnosed according to WHO-EORTC classification of CTCL and criteria of the international society of cutaneous lymphomas were included in the study. As controls, we investigated blood samples of healthy donors (n=7). Informed consent was obtained from all subjects before inclusion. The study was conducted according to ethical guidelines at our institution and the Helsinki Declaration and was approved by the ethics committee II of the University of Heidelberg.
(§2) ABT-199, ABT-263 and the mouse antibody against human Bcl-2 were obtained from Santa Cruz Biotechnology. DMF and monomethyl fumarate (MMF) were purchased from Sigma-Aldrich. Caspase-3 and cleaved-Caspase-3 antibodies came from Cell Signaling Technology, Ki-67 antibodies from Novacastra. Primary CD4+ T cells were isolated from heparinized whole blood and treated as indicated (Nicolay et al. (2016), Blood 128(6):805-815). Cell lines were obtained from ATCC (HH, J16) or generously donated by Drs. Gniadecki and Pless from Bispebjerg Hospital Copenhagen, Denmark and Dr. Kaltoft, Aarhus University Denmark (SeAx) or Prof. Eichmuiller from DKFZ Heidelberg, Germany (MyLa), and cultured as described (Nikolay et al, ibd.)
(§3) 1.3 Cell Death Assays, Quantitative Reverse Transcript (qRT) PCR, Western Blot were Performed as According to Standard Methods.

[2] = tested on: primary healthy CD4+ T cells; assay: Cell death assay in primary CD4+ cells of healthy donors; assay type: cell-based, human; details: different concentrations
Description: as §1, §2, §3

[3] = tested on: SeAx cells; assay: Cell death assay in CTCL cell line SeAx; assay type: cell-based; details: different concentrations, 24 h
Excerpt: as §2, §3

[4] = tested on: MyLa cells; assay: Cell death assay in CTCL cell line MyLa; assay type: cell-based
Excerpt: as §2, §3

[5] = tested on: J16 cells; assay: Cell death assay in non-CTCL cell line J16; assay type: cell-based; details: different concentrations, 24 h
Excerpt: as §2, §3

[6] = tested on: HH cells; assay: Cell death assay in CTCL cell line HH; assay type: cell-based; details: different concentrations, 24 h
Excerpt: as §2, §3

[7] = tested on: caspase 3 cleavage in SeAx cells; assay: Western blot of caspase 3 cleavage in SeAx cells; assay type: cell-based; details: 100 or 1000 nM ABT-199, 50 μM DMF
Excerpt: as §2, §3

[8] = tested on: caspase 3 cleavage in HH cells; assay: Western blot of caspase 3 cleavage in HH cells; assay type: cell-based; details: 100 or 1000 nM ABT-199, 50 μM DMF
Excerpt: as §2, §3

[9] = tested on: Bax/Bak interaction in SeAx cells; assay: Proximity ligation assay (PLA) of Bax/Bak in SeAx cells; assay type: cell-based
Description: (§4) In order to determine protein interactions a proximity ligation assay was performed with Duolink® PLA by Sigma-Aldrich as described before (Schroeder et al. (2017), Nat. Publ. Gr. October 2016:1-12). The rabbit antibody against Bak and the mouse antibody against Bax were obtained from Abcam.

[10] = tested on: Bax/Bak interaction in HH cells; assay: Proximity ligation assay (PLA) of Bax/Bak in HH cells; assay type: cell-based
Description: as §4

[11] = tested on: SeAx xenograft tumors; assay: Orthotopic SeAx xenograft CTCL mouse model: tumor growth and survival; assay type: in vivo, NSG mice; details: for tumor growth: ABT-199 100 mg/kg once oral, DMF 30 mg/kg i.p. once daily for 28 days; for overall survival: SeAx xenograft NSG mice; for animals still under follow-up (survival rate): day 30, one day after the end of the treatment phase
Description: (§5) All animal experiments were in accordance with the approved guidelines of the local Governmental Committee for Animal Experimentation (RP Karlsruhe, Germany, license G282/15). Mice were maintained at a 12 h light-dark cycle with unrestricted diet and water. Under isoflurane inhalation anesthesia (1-1.5% in O2, 0.5 L/min), 3×10^6 SeAx cells suspended in 30 μl of PBS/Matrigel (1:1, v/v) were injected intradermally (i.d.) into the right flank of 6-7-week-old female NOD SCID gamma (NSG) mice recruited from the Center for Preclinical Research, DKFZ, Heidelberg and kept on Kliba diet 3307 with n=8 mice/group. When tumors reached palpable size (mean of 0.025 cm^3) mice were randomized and treated first as indicated once by oral gavage with ABT-199 dissolved in a vehicle of […], 30% polyethylenglycol 400 and 10% ethanol at a concentration of 100 mg/kg body weight, 10 μl/g mouse or vehicle alone as indicated. One day later, intraperitoneal (i.p.) treatment with DMF once daily for 28 days was started as indicated. The compound, dissolved at 3 mg/ml in 30° C. pre-warmed PBS, was given with 10 μl/g mouse at a dose of 30 mg/kg bodyweight. For control, PBS (10 μl/g mouse) was injected. Tumor volume was measured with a caliper 2-3 times a week and calculated according to the formula: V=(length (mm)×width (mm)^2)/2. Necropsies were taken when one tumor diameter reached 1.5 cm or when mice reached stop criterion of the German Society of Laboratory Animal Sciences (GV-SOLAS), here defined as survival. For tissue staining, the liver and a quarter of the tumor was fixed in 4% PBS-buffered formaldehyde and embedded into paraffin according to routine procedures.

[12] = tested on: SeAx xenograft tumors; assay: Histology and immunohistochemistry of SeAx xenograft tumors; assay type: in vivo, NSG mice; details: for Ki-67 positivity (proliferation index) / caspase 3 cleavage within the xenograft tumors: immunohistochemistry, 400×
Description: as §5
Hematoxylin and eosin staining as well as immunohistochemistry were performed on 5 μm paraffin sections as described. For immunohistochemical stainings, paraffin-embedded tissue was sectioned into 5 μm slices. Ki-67 was detected in deparaffinized tissue specimens after antigen retrieval (20 min at boiling temperature in 10 mM sodium citrate pH 6.0), block of endogenous peroxidases in 3% H2O2 in PBS for 10 min, block in 100% goat serum for 1 h at room temperature (RT) and incubation overnight at 4° C. in a 1:250 dilution of anti-Ki-67 antibodies (NCL-Ki67p, Novacastra). Slides were incubated with appropriate horse-radish peroxidase (HRP)-coupled secondary antibody (1:200) for 1 h at RT, incubated with HRP substrate solution (DAB/H2O2, Sigma, Munich/Germany). Nuclei were counterstained with hematoxylin for 1 min. Mounting was in Eukitt (R. Langenbrinck, Teningen/Germany). Sections incubated without primary antibody were included as negative controls.
Immunohistochemical assessment of the tissue slides was performed by a dermatologist (JPN) and a pathologist (TA).
For microscopy, the following Nikon objective lenses were used (Nikon, Tokio, Japan): Nikon Plan Apoλ 2×/0.1, Nikon Plan Apoλ 20×/0.75. Microscopy was performed at 22° C. throughout with cryopreserved or paraffin sections. As fluorochromes phycoerythrin (PE), fluorescein-isothiocyanate (FITC) and DAPI were used for red, green and blue stainings, respectively. The micrographs were taken with a Nikon DS-Fi2 camera using the Nikon DS-L3 software.

[13] = target: Bcl-xL (Homo sapiens, UniProt Q07817); details: inhibition of Bcl-xL; cited from earlier work
Bcl-xL, sequence (Q07817 whole entry, species assumed): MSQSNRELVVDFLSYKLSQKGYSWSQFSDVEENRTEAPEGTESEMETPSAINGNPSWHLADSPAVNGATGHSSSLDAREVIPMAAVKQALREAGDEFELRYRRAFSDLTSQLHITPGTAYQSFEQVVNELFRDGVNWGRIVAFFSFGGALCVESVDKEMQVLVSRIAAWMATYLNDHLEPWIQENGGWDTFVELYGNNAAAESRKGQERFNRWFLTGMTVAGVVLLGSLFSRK

[14] = tested on: Bcl-2; assay: Western blot of Bcl-2 family protein levels upon NFκB inhibition; assay type: cell-based, human; details: J16, HH and SeAx cells
Excerpt: as §2, §3

Row | SMILES | specific cell death [1] | cell death effect [2] | cell death sensitivity [3] | cell death sensitivity [4] | cell death sensitivity [5] | cell death response [6] | caspase 3 cleavage [7] | caspase 3 cleavage [8] | green fluorescence (Bax/Bak interaction, PLA) [9] | Bax/Bak interaction (PLA) [10] | tumor growth [11] | overall survival [11] | animals still under follow-up (survival rate) [11] | animals dropped out of the group ([11]; within the first 10 days after monotreatment, ABT-199 100 mg/kg once by oral gavage, n=8) | Ki-67 positivity (proliferation index) [12] | caspase 3 cleavage within the xenograft tumors [12] | number of circulating platelets [13] | protein levels of Bcl-2 or other anti-apoptotic Bcl-2 family members like Mcl-1 [14] | mitotic activity (mitosis figures in H&E specimens) ([12]; 200× magnification)
1 | CC1(C)CCC(CN2CCN(c3ccc(C(=O)NS(=O)(=O)c4ccc(NCC5CCOCC5)c([N+](=O)[O-])c4)c(Oc4cnc5[nH]ccc5c4)c3)CC2)=C(c2ccc(Cl)cc2)C1 [ABT-199, 4-[4-[[2-(4-chlorophenyl)-4,4-dimethyl-1-cyclohexen-1-yl]methyl]-1-piperazinyl]-N-[[3-nitro-4-[[(tetrahydro-2H-pyran-4-yl)methyl]amino]phenyl]sulfonyl]-2-(1H-pyrrolo[2,3-b]pyridin-5-yloxy)-Benzamide] | dose-dependent specific CD4+ T cell death after 24 h and 48 h with significantly higher rates in Sezary patients' cells than in those from healthy donors | weak effect | high cell death sensitivity | high cell death sensitivity | by far attenuated cell death sensitivity | barely any response | dose-dependent caspase 3 cleavage | had no effect | significant increase in green fluorescence | had no effect | weak, but not significant decrease in tumor growth | no advantage with respect to survival | 0% | 3/8 | slightly reduced positivity for Ki-67 | slightly increased caspase 3 cleavage | – | – | –
2 | CC1(C)CCC(c2ccc(Cl)cc2)=C(CN2CCN(c3ccc(C(=O)NS(=O)(=O)c4ccc(N[C@H](CCN5CCOCC5)CSc5ccccc5)c(S(=O)(=O)C(F)(F)F)c4)cc3)CC2)C1 [ABT-263, (R)-4-(4-((4′-chloro-4,4-dimethyl-3,4,5,6-tetrahydro-[1,1′-biphenyl]-2-yl)methyl)piperazin-1-yl)-N-((4-((4-morpholino-1-(phenylthio)butan-2-yl)amino)-3-((trifluoromethyl)sulfonyl)phenyl)sulfonyl)benzamide] | dose-dependent specific CD4+ T cell death after 24 h and 48 h with significantly higher rates in Sezary patients' cells than in those from healthy donors | weak effect | high cell death sensitivity | high cell death sensitivity | by far attenuated cell death sensitivity | barely any response | – | – | – | – | – | – | – | – | – | – | concentration-dependent decrease in the number of circulating platelets | – | –
3 | CN(C)CC[C@H](CSc1ccccc1)Nc1ccc(S(=O)(=O)NC(=O)c2ccc(N3CCN(Cc4ccccc4-c4ccc(Cl)cc4)CC3)cc2)cc1[N+](=O)[O-] [ABT-737, 4-[4-[(4′-chloro[1,1′-biphenyl]-2-yl)methyl]-1-piperazinyl]-N-[[4-[[(1R)-3-(dimethylamino)-1-[(phenylthio)methyl]propyl]amino]-3-nitrophenyl]sulfonyl]-Benzamide] | – | – | – | – | – | – | – | – | – | – | – | – | – | – | – | – | concentration-dependent decrease in the number of circulating platelets | – | –
4 | COC(=O)/C=C/C(=O)OC [DMF, Dimethyl (E)-butenedioate] | – | – | – | – | – | – | – | could induce significant caspase 3 cleavage | – | had no effect | weak, but not significant decrease in tumor growth | overall survival benefit | 13% | – | slightly reduced positivity for Ki-67 | slightly increased caspase 3 cleavage | – | no influence | significant decrease in mitotic activity
